{"source": "patent US12310933B2", "about": "“Treatment of demyelinating disorders” (The University of Chicago, priority 2013, dated 2025)", "molecules": {"B1": {"name": "interferon-beta (protein, UniProt P01575 22-182, looked up)", "Interferon beta": "INYKQLQLQERTNIRKCQELLEQLNGKINLTYRADFKIPMEMTEKMQKSYTAFAIQEMLQNVFLVFRNNFSSTGWNETIVVRLLDELHQQTVFLKTVLEEKQEERLTWEMSSTALHLKSYYWRVQRYLKLMKYNSYAWMVVRAEIFRNFLIIRRLTRNFQN"}, "B2": {"name": "IFN-γ: inflammatory cytokine used to challenge cultured oligodendrocyte lineage cells and cerebellar slices (protein, UniProt P01579 24-161, looked up)", "Interferon gamma": "QDPYVKEAENLKKYFNAGHSDVADNGTLFLGILKNWKEESDRKIMQSQIVSFYFKLFKNFKDDQSIQKSVETIKEDMNVKFFNSNKKKRDDFEKLTNYSVTDLNVQRKAIHELIQVMAELSPAAKTGKRKRSQMLFRG"}}, "key": {"[1]": {"system": "C57BL/6J mice with experimental autoimmune encephalitis (EAE)", "assay": "Chronic EAE (MOG35-55), clinical scores and symptom onset", "type": "in vivo, mouse"}, "[2]": {"system": "cultured rat cerebellar slices", "assay": "Myelin basic protein and toluidine blue staining of ex vivo cultured cerebellar slices treated with IFN-γ", "type": "cell-based", "conditions": "seven days", "experimental": "Briefly, cerebellar sections were prepared from 6 day old Sprague-Dawley rat pups. […] Two to three sections were collected per well and grown in growth media with Fungizone. […] Sections were then stained for myelin-basic protein (A-E) and toluidine blue (F-H), used to visualize myelin and neuronal cytoarchitecture."}, "[3]": {"system": "SJL mice with remitting/relapsing EAE", "assay": "Remitting/relapsing EAE (PLP139-151), clinical scores", "type": "in vivo, mouse"}, "[4]": {"system": "differentiating rat oligodendrocyte precursor cells (drOPCs)", "assay": "FDA/PI (fluorescein-diacetate/propidium iodide) live/dead cell viability assay, IFN-γ challenge", "type": "cell-based", "description": "Interferon-γ is an inflammatory cytokine that is thought to contribute to multiple sclerosis exacerbations, therefore, treatment of cultured cells of the oligodendrocyte lineage with interferon-γ provides a useful cellular model of MS-related inflammation. drOPCs were isolated and purified to >95% homogeneity from 6-7 day old Sprague-Dawley rat cortices by immunopanning as previously described (Chan et al. 2004 Neuron 43:2; 183-191). Briefly, rat cortices were extracted, diced, and digested with papain at 37° C. Cells were then triturated and resuspended in panning buffer containing insulin, then sequentially immunopanned at room temperature on three plates containing Ran-2, GalC, and O4 antibodies from hybridomal supernatant. The remaining O4^+GalC^− OPCs were removed from the plates with trypsin, resuspended in growth media, and seeded at 37° C. onto pDL-coated flasks to facilitate proliferation. Once sufficient numbers were reached, OPCs were split, plated in differentiation media at 200,000 cells/well, and allowed to differentiate for 24 hours. […] Following 48 hours of treatment, media was removed and the cells were incubated in FDA/PI (fluorescein-diacetate/propidium iodide) for 3 minutes, rinsed with 1×PBS, and imaged for live/dead cell quantification. In living cells, non-fluorescent FDA is converted into fluorescein, giving off a bright green fluorescence. PI is membrane impermeable and therefore excluded from live cells. Therefore, green cells indicate viable cells and red cells indicate non-viable cells. […] Treatment with 200 U/ml IFN-γ alone reduced the number of green cells and increased the number of red cells (C). […] FIG. 2B illustrates the quantitation of the experiment in FIG. 2a. […] Treatment with IFN-γ alone caused a roughly 40-50% decrease in cell survival. […] Data is presented as the mean+/−SEM for an N=3/group. (*p<0.05, **p<0.005)"}, "[5]": {"system": "C57BL/6J mice with chronic EAE", "assay": "Guanabenz/interferon co-administration in chronic EAE, onset of clinical symptoms", "type": "in vivo, mouse", "conditions": "for onset of clinical symptoms: daily from post immunization day 7", "description": "Eight week old C57BL/6J female mice were immunized with MOG35-55/CFA to induce chronic EAE. […] Mice were scored daily for clinical symptoms (0=healthy, 1=flaccid tail, 2=ataxia and/or paresis of hindlimbs, 3=paralysis of hindlimbs and/or paresis of forelimbs, 4=tetraparalysis, 5=moribund or death). […] Onset of clinical symptoms began at approximately day 12 in saline-treated mice and at approximately day 13 in mice treated with interferon alone. […] While preferred embodiments of the present invention have been shown and described herein, it will be obvious to those skilled in the art that such embodiments are provided by way of example only. Numerous variations, changes, and substitutions will now occur to those skilled in the art without departing from the invention. It should be understood that various alternatives to the embodiments of the invention described herein may be employed in practicing the invention. It is intended that the following claims define the scope of the invention and that methods and structures within the scope of these claims and their equivalents be covered thereby."}, "[6]": {"system": "differentiating rat oligodendrocyte precursor cells (drOPCs)", "assay": "TUNEL assay for IFN-γ induced apoptosis", "type": "cell-based", "experimental": "Cells were isolated as described previously and plated in chamber slides at 20,000 cells/chamber. Cells were then treated with the same IFN-γ and guanabenz protocol as described previously, then subjected to a TUNEL assay. […] FIG. 3B illustrates the quantitation of the experiment in FIG. 3a. […] Error bars represent mean±SEM for an N=3/group (*p<0.05, **p<0.005, ***p<0.0005)"}, "[7]": {"conditions": "5.0 μM guanabenz co-treatment with IFN-γ"}, "[8]": {"conditions": "interferon-beta 5,000 U/day/mouse alone"}}}
{"molecule": "N=C(N)N/N=C/c1c(Cl)cccc1Cl", "note": "[guanabenz]", "values": [{"measurement": "clinical score by days post symptom onset", "setting": "[1]; 4 mg/kg/day", "result": "Neither 4 mg/kg/day nor 16 mg/kg/day caused a significant reduction in clinical score"}, {"measurement": "average symptom onset", "setting": "[1]; 4 mg/kg/day IP from PID 7", "result": 19, "unit": "days"}, {"measurement": "clinical score by days post symptom onset (symptom severity)", "setting": "[1]; 8 mg/kg/day", "result": "significantly reduced symptom severity"}, {"measurement": "average symptom onset", "setting": "[1]; 8 mg/kg/day IP from PID 7", "result": "about 22 days"}, {"measurement": "clinical score by days post symptom onset", "setting": "[1]; 16 mg/kg/day", "result": "Neither 4 mg/kg/day nor 16 mg/kg/day caused a significant reduction in clinical score"}, {"measurement": "average symptom onset", "setting": "[1]; 16 mg/kg/day IP from PID 7", "result": "about 25 days"}, {"measurement": "delay in symptom onset", "setting": "[1]; all guanabenz doses (4-16 mg/kg/day), IP daily from PID 7", "result": "significant delay in symptom onset"}, {"measurement": "myelin fiber and axonal structure", "setting": "[2]; 2.5 μM guanabenz + 100 U/ml IFN-γ", "result": "restored intact, long myelin fiber and axonal structure"}, {"measurement": "myelin fiber and axonal structure", "setting": "[2]; 5.0 μM guanabenz + 100 U/ml IFN-γ", "result": "restored intact, long myelin fiber and axonal structure"}, {"measurement": "myelin fiber and axonal structure", "setting": "[2]; 10.0 μM guanabenz + 100 U/ml IFN-γ", "result": "restored intact, long myelin fiber and axonal structure"}, {"measurement": "average decrease in relapse severity", "setting": "[3]; 8 mg/kg IP daily from beginning of remission", "result": "about 50%"}, {"measurement": "average decrease in relapse severity", "setting": "[3]; 16 mg/kg IP daily from onset of remission", "result": "about 40%"}, {"measurement": "symptom severity during the remission phase, compared to vehicle", "setting": "[3]; 16 mg/kg/day IP", "result": "greater decrease in symptom severity during the remission phase"}, {"measurement": "cell viability (green/red cells, FDA/PI)", "setting": "[4]; 1.25 μM guanabenz + 200 U/ml IFN-γ, 48 hours", "result": "partially restored viability"}, {"measurement": "increase in cell survival compared to IFN-γ alone", "setting": "[4]; 1.25 μM guanabenz + IFN-γ", "result": "roughly 25%"}, {"measurement": "cell viability (green/red cells, FDA/PI)", "setting": "[4]; 2.5 μM guanabenz + 200 U/ml IFN-γ, 48 hours", "result": "partially restored viability"}, {"measurement": "increase in cell survival compared to IFN-γ alone", "setting": "[4]; 2.5 μM guanabenz + IFN-γ", "result": "roughly 25%"}, {"measurement": "cell survival (FIG. 2B)", "setting": "[4]; 5.0 μM guanabenz + IFN-γ", "result": "increased survival almost to control levels"}, {"measurement": "cell viability (green and red cells, FDA/PI)", "setting": "[4]; 5.0 μM guanabenz alone, no IFN-γ, 48 hours", "result": "does not impact cell viability"}, {"measurement": "percent survival (FIG. 2B)", "setting": "[4]; guanabenz alone vs untreated control", "result": "comparable percent survival"}, {"measurement": "onset of clinical symptoms", "setting": "[5]; guanabenz 8 mg/kg alone", "result": "~18", "unit": "days"}, {"measurement": "IFN-γ induced apoptosis (TUNEL, photomicrographs)", "setting": "[6]; [7]", "result": "reduced IFN-γ induced apoptosis"}, {"measurement": "reduction of IFN-γ induced apoptosis compared to IFN-γ alone", "setting": "[6]; [7]", "result": "about 87.5%"}]}
{"molecule": "B1", "values": [{"measurement": "delay of onset of clinical symptoms", "setting": "[5]; [8]", "result": "did not significantly delay onset of clinical symptoms"}, {"measurement": "onset of clinical symptoms", "setting": "[5]; [8]", "result": "~13", "unit": "days"}]}
{"molecule": "B2", "values": [{"measurement": "decrease in cell survival", "setting": "[4]; IFN-γ alone, 200 U/ml, 48 hours", "result": "40-50%"}, {"measurement": "increase in apoptosis compared to control cells", "setting": "[6]; IFN-γ alone", "result": "2-3 fold"}]}
